{"source": "patent US20190343908A1", "about": "“Therapeutic Combination for the Treatment of Cancer” (Nerium Biotechnology Inc., priority 2011, published 2019)", "key": {"[1]": {"test_system": "HCT-15 (colorectal cancer)", "experiment": "Crystal Violet viability assay, HCT-15", "format": "cell-based, human", "set-up": "key to CVE Average: absorbance at 570 nm (second wavelength subtracted)", "conditions": "for CVE Average 24 h / CVE Average 48 h / CVE Average 72 h: HCT-15, Run 1", "text": "(§1) The Sulforhodamine B and Crystal Violet assays provide information about protein and were used to complement the Methyl-Tetrazolium dye assay. […] It is used for the quantification of cellular proteins of cultured cells. The assay using Crystal Violet, a dye that binds electrostatically to proteins and stains DNA, provides a reliable, simple assay for measuring viability of cells.\n(§2) The Methyl Tetrazolium, Sulforhodamine B, and Crystal Violet assays were used to assess cell viabilities. The incubation times were 24 hours, 48 hours, and 72 hours. The Nerium oleander extract Anvirzel™ (a hot water extract of oleander obtained from Salud Integral, Honduras) was tested in concentrations ranging from 0.01 ng/mL to 10 ng/mL.\n(§3) Cells were detached by trypsinization (Trypsin-0.25% EDTA, Invitrogen, 25200-072) during the logarithmic phase of culture growth and plated in 96-well plates (18.000 cells/well) (Corning, Costar 359) in a final volume of 200 μl of medium per well. […] The absorbance was measured after 24 hours, 48 hours, and 72 hours of incubation.\n(§4) For the Crystal Violet assay, the medium was removed from the 96-well plates, the plates rinsed with PBS (Sigma, P3813) and then the cells were […] by the addition of 10% formalin (MERCK, 1.04003.2500) for 20 minutes at RT. Formalin was removed and 0.25% aqueous crystal violet (Sigma, HT901), dissolved in water, was added for 10 minutes at RT. Unbound Crystal Violet was rinsed by washing with water and finally 33% acetic acid was added to dissolve the dye.\n(§5) The optical density of each plate was measured on a μQuant spectrophotometer and the data were analyzed with Gen5 software (μQuant Biomolecular Spectrophotometer MQX200 and Gen5™ Microplate Data Collection & Analysis software, BioTek® Instruments. Inc, April 2008). Absorbance was measured at 570 nm for all assays and a second wavelength was measured in order to subtract noise. For the Methyl-Tetrazolium assay this second wavelength was 630 nm and for the Sulforhodamine B and Crystal Violet assays it was 690 nm."}, "[2]": {"test_system": "COR-L 105 (non-small cell lung carcinoma)", "experiment": "Crystal Violet viability assay, COR-L 105", "format": "cell-based, human", "set-up": "key to CVE Average: absorbance at 570 nm (crystal violet), background wavelength subtracted", "conditions": "for CVE Average 24 h / CVE Average 48 h / CVE Average 72 h: COR-L 105, Run 3", "text": "Three different viability assays were chosen to complement each other and yielded results dependent on concentration and cell line: the Methyl Tetrazolium dye assay, the Sulforhodamine B fluorescent dye assay, and the Crystal Violet dye assay.\nas §1, §2, §3, §4, §5"}}, "data": [{"smiles": "N.N.[Cl][Pt][Cl]", "note": "[cisplatin]", "values": [{"measurement": "CVE Average 24 h", "setting": "[1]; 0.1 μg/ml CDDP", "value": 0.787}, {"measurement": "CVE Average 48 h", "setting": "[1]; 0.1 μg/ml CDDP", "value": 0.99}, {"measurement": "CVE Average 72 h", "setting": "[1]; 0.1 μg/ml CDDP", "value": 2.312}, {"measurement": "CVE Average 24 h", "setting": "[1]; 1 μg/ml CDDP", "value": 0.451}, {"measurement": "CVE Average 48 h", "setting": "[1]; 1 μg/ml CDDP", "value": 0.187}, {"measurement": "CVE Average 72 h", "setting": "[1]; 1 μg/ml CDDP", "value": 0.425}, {"measurement": "CVE Average 24 h", "setting": "[1]; 10 μg/ml CDDP", "value": 0.59}, {"measurement": "CVE Average 48 h", "setting": "[1]; 10 μg/ml CDDP", "value": 0.277}, {"measurement": "CVE Average 72 h", "setting": "[1]; 10 μg/ml CDDP", "value": 0.282}, {"measurement": "CVE Average 24 h", "setting": "[1]; 100 μg/ml CDDP", "value": 0.456}, {"measurement": "CVE Average 48 h", "setting": "[1]; 100 μg/ml CDDP", "value": 0.214}, {"measurement": "CVE Average 72 h", "setting": "[1]; 100 μg/ml CDDP", "value": 0.231}, {"measurement": "CVE Average", "setting": "[1]; Run 2, 24 h, 0.1 μg/ml CDDP", "value": 0.766}, {"measurement": "CVE Average", "setting": "[1]; Run 2, 24 h, 1 μg/ml CDDP", "value": 0.387}, {"measurement": "CVE Average", "setting": "[1]; Run 2, 24 h, 10 μg/ml CDDP", "value": 0.824}, {"measurement": "CVE Average", "setting": "[1]; Run 2, 24 h, 100 μg/ml CDDP", "value": 0.41}, {"measurement": "CVE Average", "setting": "[1]; Run 2, 48 h, 0.1 μg/ml CDDP", "value": 1.542}, {"measurement": "CVE Average", "setting": "[1]; Run 2, 48 h, 1 μg/ml CDDP", "value": 0.533}, {"measurement": "CVE Average", "setting": "[1]; Run 2, 48 h, 10 μg/ml CDDP", "value": 0.742}, {"measurement": "CVE Average", "setting": "[1]; Run 2, 48 h, 100 μg/ml CDDP", "value": 0.378}, {"measurement": "CVE Average", "setting": "[1]; Run 2, 72 h, 0.1 μg/ml CDDP", "value": 2.449}, {"measurement": "CVE Average", "setting": "[1]; Run 2, 72 h, 1 μg/ml CDDP", "value": 0.533}, {"measurement": "CVE Average", "setting": "[1]; Run 2, 72 h, 10 μg/ml CDDP", "value": 0.46}, {"measurement": "CVE Average", "setting": "[1]; Run 2, 72 h, 100 μg/ml CDDP", "value": 0.327}, {"measurement": "CVE Average", "setting": "[1]; Run 3, 24 h, 0.1 μg/ml CDDP", "value": 2.043}, {"measurement": "CVE Average", "setting": "[1]; Run 3, 24 h, 1 μg/ml CDDP", "value": 0.459}, {"measurement": "CVE Average", "setting": "[1]; Run 3, 24 h, 10 μg/ml CDDP", "value": 1.477}, {"measurement": "CVE Average", "setting": "[1]; Run 3, 24 h, 100 μg/ml CDDP", "value": 0.473}, {"measurement": "CVE Average", "setting": "[1]; Run 3, 48 h, 0.1 μg/ml CDDP", "value": 1.335}, {"measurement": "CVE Average", "setting": "[1]; Run 3, 48 h, 10 μg/ml CDDP", "value": 0.363}, {"measurement": "CVE Average", "setting": "[1]; Run 3, 48 h, 100 μg/ml CDDP", "value": 0.114}, {"measurement": "CVE Average", "setting": "[1]; Run 3, 72 h, 0.1 μg/ml CDDP", "value": 2.814}, {"measurement": "CVE Average", "setting": "[1]; Run 3, 72 h, 1 μg/ml CDDP", "value": 0.623}, {"measurement": "CVE Average", "setting": "[1]; Run 3, 72 h, 10 μg/ml CDDP", "value": 0.669}, {"measurement": "CVE Average", "setting": "[1]; Run 3, 72 h, 100 μg/ml CDDP", "value": 0.499}, {"measurement": "CVE Average 24 h", "setting": "[2]; 0.1 μg/ml CDDP", "value": 0.388}, {"measurement": "CVE Average 48 h", "setting": "[2]; 0.1 μg/ml CDDP", "value": 0.709}, {"measurement": "CVE Average 72 h", "setting": "[2]; 0.1 μg/ml CDDP", "value": 0.457}, {"measurement": "CVE Average 24 h", "setting": "[2]; 1 μg/ml CDDP", "value": 0.363}, {"measurement": "CVE Average 48 h", "setting": "[2]; 1 μg/ml CDDP", "value": 0.517}, {"measurement": "CVE Average 72 h", "setting": "[2]; 1 μg/ml CDDP", "value": 0.263}, {"measurement": "CVE Average 24 h", "setting": "[2]; 10 μg/ml CDDP", "value": 0.358}, {"measurement": "CVE Average 48 h", "setting": "[2]; 10 μg/ml CDDP", "value": 0.653}, {"measurement": "CVE Average 72 h", "setting": "[2]; 10 μg/ml CDDP", "value": 0.387}, {"measurement": "CVE Average 24 h", "setting": "[2]; 100 μg/ml CDDP", "value": 0.282}, {"measurement": "CVE Average 48 h", "setting": "[2]; 100 μg/ml CDDP", "value": 0.341}, {"measurement": "CVE Average 72 h", "setting": "[2]; 100 μg/ml CDDP", "value": 0.389}, {"measurement": "CVE Average", "setting": "[2]; Run 1, 24 h, 0.1 μg/ml CDDP", "value": 0.413}, {"measurement": "CVE Average", "setting": "[2]; Run 1, 24 h, 1 μg/ml CDDP", "value": 0.431}, {"measurement": "CVE Average", "setting": "[2]; Run 1, 24 h, 10 μg/ml CDDP", "value": 0.484}, {"measurement": "CVE Average", "setting": "[2]; Run 1, 24 h, 100 μg/ml CDDP", "value": 0.307}, {"measurement": "CVE Average", "setting": "[2]; Run 1, 48 h, 0.1 μg/ml CDDP", "value": 0.599}, {"measurement": "CVE Average", "setting": "[2]; Run 1, 48 h, 1 μg/ml CDDP", "value": 0.643}, {"measurement": "CVE Average", "setting": "[2]; Run 1, 48 h, 10 μg/ml CDDP", "value": 0.632}, {"measurement": "CVE Average", "setting": "[2]; Run 1, 48 h, 100 μg/ml CDDP", "value": 0.379}, {"measurement": "CVE Average", "setting": "[2]; Run 1, 72 h, 0.1 μg/ml CDDP", "value": 0.298}, {"measurement": "CVE Average", "setting": "[2]; Run 1, 72 h, 1 μg/ml CDDP", "value": 0.23}, {"measurement": "CVE Average", "setting": "[2]; Run 1, 72 h, 10 μg/ml CDDP", "value": 0.216}, {"measurement": "CVE Average", "setting": "[2]; Run 1, 72 h, 100 μg/ml CDDP", "value": 0.244}, {"measurement": "CVE Average", "setting": "[2]; Run 2, 24 h, 0.1 μg/ml CDDP", "value": 0.388}, {"measurement": "CVE Average", "setting": "[2]; Run 2, 24 h, 1 μg/ml CDDP", "value": 0.363}, {"measurement": "CVE Average", "setting": "[2]; Run 2, 24 h, 10 μg/ml CDDP", "value": 0.358}, {"measurement": "CVE Average", "setting": "[2]; Run 2, 24 h, 100 μg/ml CDDP", "value": 0.282}, {"measurement": "CVE Average", "setting": "[2]; Run 2, 48 h, 0.1 μg/ml CDDP", "value": 0.709}, {"measurement": "CVE Average", "setting": "[2]; Run 2, 48 h, 1 μg/ml CDDP", "value": 0.517}, {"measurement": "CVE Average", "setting": "[2]; Run 2, 48 h, 10 μg/ml CDDP", "value": 0.653}, {"measurement": "CVE Average", "setting": "[2]; Run 2, 48 h, 100 μg/ml CDDP", "value": 0.341}, {"measurement": "CVE Average", "setting": "[2]; Run 2, 72 h, 0.1 μg/ml CDDP", "value": 0.457}, {"measurement": "CVE Average", "setting": "[2]; Run 2, 72 h, 1 μg/ml CDDP", "value": 0.263}, {"measurement": "CVE Average", "setting": "[2]; Run 2, 72 h, 10 μg/ml CDDP", "value": 0.387}, {"measurement": "CVE Average", "setting": "[2]; Run 2, 72 h, 100 μg/ml CDDP", "value": 0.389}]}]}
